Broadly, the IC50 is the concentration that inhibits the measured activity by half. Read a low IC50 as higher potency. Usually EC50 stands for the concentration at which the effect is half-maximal. A higher EC50 goes with a less potent agent.

Molecules are shown by their SMILES.

The target of one assay is WT full length PAICS (Homo sapiens (Human), UniProt P22234). Kind of assay: Biochemical assay to measure PAICS activity (Transcreener ADP2 FI). As to conditions: SAICAR synthetase reaction, ADP detection, 30 min pre-incubation. From the text:
Biochemical Assay to Measure PAICS Activity
The biochemical assay was used to measure PAICS SAICAR synthetase-mediated conversion of CAIR, aspartic acid and ATP to SAICAR, ADP and inorganic phosphate (Pi), post-AIR/CAIR equilibration (see FIG. 3). This was achieved by detecting the ADP generated during the reaction, using Bellbrook Lab's Transcreener ADP^2 FI assay. An increase in the fluorescence intensity is directly proportional to the amount of PAICS activity.
The Transcreener ADP^2 FI assay is a homogeneous competitive displacement fluorescence intensity assay which uses direct immunodetection of ADP. Displacement of the tracer by ADP causes an increase in the fluorescence at excitation 590 nm and emission 617 nm (FIG. 3).
5 μl WT full length PAICS (final assay concentration, fac, 2.5 nM) in basic buffer, added to black, non-binding, 384-well plates (Corning #3575), columns 1 to 22. 5 μl basic buffer was added to columns 23+24 (negative control). PAICS stock at 31.9 μM from the PI's lab (Steve Firestine). Basic buffer contained 50 mM Tris-HCl pH8 and 0.5 mM EDTA, fac.
1 μl compound in 100% DMSO added per well, or 1 μl 100% DMSO to positive controls (columns 1+2) and negative controls (columns 23+24). Final assay top concentration of compound either 1 mM or 30-μM, serially diluted with half-log dilutions across the plate in duplicate (one 10-point concentration response curve across wells 3 to 12, another across 13 to 22). Compounds pre-incubated with PAICS enzyme for 30 mins at RT. 2 μl CAIR added (fac 10 μM) in basic buffer plus 25 mM MgCl2 and 50 mM KHCO3 fac to all wells. CAIR stock 50 mM from Steve Firestine's lab. 1 hr RT incubation for AIR-CAIR equilibration. NB: ˜50% CAIR is decarboxylated during equilibration therefore 5 μM remains for the synthetase reaction.
2 μl ATP/aspartic acid added (fac 30 μM/180 μM) in reaction buffer to all wells. 30 mins RT incubation for appropriate level of ATP turnover. Reaction buffer contained basic buffer plus 10 mM DTT, 0.01% BSA and 0.01% Brij 35, fac.
10 μl ADP detection reagent added to all wells (as per instructions, Transcreener ADP^2 FI kit, BellBrook Labs #3013-10K). Incubation for 1 h at RT to allow antibody equilibration. Fluorescence intensity determined using a Tecan Safire2 (excitation at 590 nm, emission at 617 nm).

Assay [1] relates to LM2 and MDA-MB-231 breast cancer cell lines. Kind of assay: PAICS 2D cell proliferation assay (CellTiter-Glo viability, 72 h). In kind it is cell-based. As to conditions: Homo sapiens; 72 h incubation; cell line not given. How it is done:
PAICS 2D Cell Proliferation Assay
Frozen cryovial stocks of LM2 and MDA-MB-231 breast cancer cell lines were thawed and cultured in 4.5 g/L glucose DMEM (31966-047, Invitrogen) supplemented with 10% Fetal Bovine Serum (10500-064, Invitrogen) until confluent in a T175 flask. Cells were incubated at 37° C. with 5% CO2 in a humidified incubator.
Cells were collected from T175 flasks by washing with PBS (10010-056, Invitrogen) and dissociated using Accutase (A6964, Sigma Aldrich). This was followed by centrifuging (1200 rpm, 5 min) and resuspending the cells in 10 ml of media containing 1% penicillin/streptomycin (15140-122, Invitrogen). Cells were counted by trypan blue exclusion method using an automated cell counter (Cellometer) and diluted to a concentration of 40,000/ml. 1000 cells were then seeded into 384-well white-walled plates (Corning, 3707) in a volume of 25 μl. Plates were Incubated overnight at 37° C. with 5% CO2.
After 24 hours, PAICS compounds were added onto the assay plates using an HP D300 Digital Dispenser (Hewlett Packard). 10 mM stocks were used and dispensed as a 10 point concentration response curve (CRC) ½ log dilution series with a final top concentration of 100 μM. Controls were added onto each plate: positive controls included Staurosporine CRC (100 μM stock dispensed as a 10 point CRC ½ log dilution series with a final top concentration of 1 μM) and PAICS compound MRT00211919 (10 mM stock dispensed as a 10 point CRC ½ log dilution series with a final top concentration of 100 μM); a high control of Staurosporine (0.1 μM (LM2), 0.316 μM (MDA-MB-231) FAC) and a low control of media containing 1% DMSO. A final concentration of 1% DMSO was then added across the plates for normalisation. Following compound addition, assay plates were incubated for 72 hours at 37° C. with 5% CO2.
Day 5—Cytotoxicity and Cell Viability Assays
After 72 h incubation, dead and viable cells were measured in each assay plate. Cytotoxicity was assessed through fluorescent DNA staining using the CellTox™ Green Cytotoxicity Assay kit (G8743, Promega) following the manufacturer's multiplexing protocol. Impaired cell membrane integrity results in the access of dye to stain DNA allowing quantification of dead cells. Cell viability was determined following ATP quantification using the CellTiter-Glo® Luminescent Cell Viability Assay kit (G7572, Promega) following the manufacturer's protocol. ATP released from lysed cells allowed for the generation of a signal proportional to the number of cells present in the well. All endpoint reads were performed using the PheraSTAR Plus (BMG Labtech). Data is expressed as % viable cells and % dead cells against controls (mean±SEM of duplicate curves).

WT full length PAICS, sequence (P22234 whole entry): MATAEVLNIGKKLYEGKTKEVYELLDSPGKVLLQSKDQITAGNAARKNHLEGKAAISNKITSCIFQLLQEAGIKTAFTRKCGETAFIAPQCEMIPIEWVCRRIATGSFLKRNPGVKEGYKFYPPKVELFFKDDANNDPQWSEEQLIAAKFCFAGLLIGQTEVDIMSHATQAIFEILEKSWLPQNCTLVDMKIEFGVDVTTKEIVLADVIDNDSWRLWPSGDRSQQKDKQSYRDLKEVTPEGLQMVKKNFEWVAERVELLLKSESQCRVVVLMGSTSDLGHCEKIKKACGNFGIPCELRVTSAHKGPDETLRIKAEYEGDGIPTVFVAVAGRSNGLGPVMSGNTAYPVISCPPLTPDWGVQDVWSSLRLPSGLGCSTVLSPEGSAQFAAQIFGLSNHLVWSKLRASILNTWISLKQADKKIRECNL

`CN(C)CCOC(=O)N1CCN(c2ccc(Cl)c(NC(=O)c3coc(N)n3)c2)CC1` [Example 33, 2-(Dimethylamino)ethyl 4-(3-{[(2-amino-1,3-oxazol-4-yl)carbonyl]amino}-4-chlorophenyl)piperazine-1-carboxylate] gave an IC50 on WT full length PAICS of 25 to 100 nM. In addition, in assay [1], the EC50 lay within 500 to 1000 nM.

The compound `CN1CC(OC(=O)N2CCN(c3ccc(Cl)c(NC(=O)c4coc(N)n4)c3)CC2)C1` [Example 34, 1-Methylazetidin-3-yl 4-(3-{[(2-amino-1,3-oxazol-4-yl)carbonyl]amino}-4-chlorophenyl)piperazine-1-carboxylate] registered an IC50 on WT full length PAICS of 25 to 100 nM. The compound also showed an EC50 in assay [1] of 500 to 1000 nM.

The compound `Nc1nc(C(=O)Nc2cc(N3CCN(C(=O)OCCNC4CC4)CC3)ccc2Cl)co1` [Example 35, 2-(Cyclopropylamino)ethyl 4-(3-{[(2-amino-1,3-oxazol-4-yl)carbonyl]amino}-4-chlorophenyl)piperazine-1-carboxylate] returned an IC50 against WT full length PAICS of 25 to 100 nM. Also, the EC50 in assay [1] lay in the range of 500 to 1000 nM.

Regarding `CN1CC(CN2CCN(c3ccc(Br)c(NC(=O)c4coc(N)n4)c3)CC2=O)C1` [Example 44], the IC50 against WT full length PAICS fell in the range of 10 to 25 nM. For the same compound, the EC50 in assay [1] was in the range of 500 to 1000 nM.

For `CN(C)CCN1CCN(c2ccc(Br)c(NC(=O)c3coc(N)n3)c2)CC1=O` [Example 45], the IC50 against WT full length PAICS was in the range of 10 to 25 nM. The compound further returned an EC50 in assay [1] of 250 to 500 nM.

At WT full length PAICS, `CN(C)CCCN1CCN(c2ccc(Cl)c(NC(=O)c3coc(N)n3)c2)CC1=O` [Example 46, 2-Amino-N-(2-chloro-5-{4-[3-(dimethylamino)propyl]-3-oxopiperazin-1-yl}phenyl)-1,3-oxazole-4-carboxamide] yielded an IC50 of over 100 nM. Further, the EC50 in assay [1] was 500 to 1000 nM.

Regarding `NCCS(=O)(=O)N1CCN(c2ccc(Cl)c(NC(=O)c3coc(N)n3)c2)CC1` [Example 53, 2-Amino-N-(5-(4-(2-aminoethylsulfonyl)piperazin-1-yl)-2-chlorophenyl) oxazole-4-carboxamide], the IC50 on WT full length PAICS fell in the range of 25 to 100 nM. The EC50 in assay [1] lay in the range of 500 to 1000 nM.

`CN(C)CCS(=O)(=O)N1CCN(c2ccc(Br)c(NC(=O)c3coc(N)n3)c2)CC1` [Example 54, 2-Amino-N-[2-bromo-5-(4-{[2-(dimethylamino)ethyl]sulfonyl}piperazin-1-yl)phenyl]-1,3-oxazole-4-carboxamide]: the IC50 against WT full length PAICS was under 10 nM. In assay [1], the EC50 was 100 to 250 nM.

Consider `CNCCS(=O)(=O)N1CCN(c2ccc(Cl)c(NC(=O)c3coc(N)n3)c2)CC1` [Example 56, 2-Amino-N-[2-chloro-5-(4-{[2-(methylamino)ethyl]sulfonyl}piperazin-1-yl)phenyl]-1,3-oxazole-4-carboxamide], for which, at WT full length PAICS, the IC50 was in the range of 10 to 25 nM. This compound yielded an EC50 in assay [1] of 250 to 500 nM.

On WT full length PAICS, `CN(C)CCS(=O)(=O)N1CCN(c2ccc(Cl)c(NC(=O)c3coc(N)n3)c2)CC1` [Example 57, 2-Amino-N-[2-chloro-5-(4-{[2-(dimethylamino)ethyl]sulfonyl}piperazin-1-yl)phenyl]-1,3-oxazole-4-carboxamide] displayed an IC50 of 10 to 25 nM. This compound also gave an EC50 in assay [1] of 500 to 1000 nM.

Turning to `Nc1nc(C(=O)Nc2cc(N3CCN(S(=O)(=O)CCNC4CC4)CC3)ccc2Cl)co1` [Example 58, 2-Amino-N-[2-chloro-5-(4-{[2-(cyclopropylamino)ethyl]sulfonyl}piperazin-1-yl)phenyl]-1,3-oxazole-4-carboxamide], the IC50 at WT full length PAICS lay in the range of 25 to 100 nM. Besides, the EC50 in assay [1] was 500 to 1000 nM.

In turn, `CN1CCN(CCS(=O)(=O)N2CCN(c3ccc(Cl)c(NC(=O)c4coc(N)n4)c3)CC2)CC1` [Example 59, 2-Amino-N-[2-chloro-5-(4-{[2-(4-methylpiperazin-1-yl)ethyl]sulfonyl}piperazin-1-yl)phenyl]-1,3-oxazole-4-carboxamide] yielded an IC50 at WT full length PAICS of 10 to 25 nM. The same compound had a 50% effective concentration (EC50) in assay [1] of 250 to 500 nM.

As for `CN(C)CCNCCS(=O)(=O)N1CCN(c2ccc(Cl)c(NC(=O)c3coc(N)n3)c2)CC1` [Example 60], on WT full length PAICS, the IC50 lay in the range of 10 to 25 nM. Moreover, the EC50 in assay [1] fell in the range of 250 to 500 nM.

`CC(C)NCCS(=O)(=O)N1CCN(c2ccc(Cl)c(NC(=O)c3coc(N)n3)c2)CC1` [Example 61, 2-Amino-N-[2-chloro-5-(4-{[2-(propan-2-ylamino)ethyl]sulfonyl}piperazin-1-yl)phenyl]-1,3-oxazole-4-carboxamide] yielded an IC50 on WT full length PAICS of 10 to 25 nM. Moreover, the EC50 in assay [1] was in the range of 100 to 250 nM.

In turn, `CN1CCC(NCCS(=O)(=O)N2CCN(c3ccc(Cl)c(NC(=O)c4coc(N)n4)c3)CC2)CC1` [Example 62, 2-Amino-N-{2-chloro-5-[4-({2-[(1-methylpiperidin-4-yl)amino]ethyl}sulfonyl)piperazin-1-yl]phenyl}-1,3-oxazole-4-carboxamide] came in with an IC50 at WT full length PAICS of 10 to 25 nM. The compound further showed an EC50 in assay [1] of 250 to 500 nM.

On WT full length PAICS, `CC(C)NCCS(=O)(=O)N1CCN(c2ccc(Br)c(NC(=O)c3coc(N)n3)c2)CC1` [Example 63] registered an IC50 of under 10 nM. In assay [1], this compound registered an EC50 of under 100 nM.

On to `CN1CCC(NCCS(=O)(=O)N2CCN(c3ccc(Br)c(NC(=O)c4coc(N)n4)c3)CC2)CC1` [Example 64, 2-Amino-N-{2-bromo-5-[4-({2-[(1-methylpiperidin-4-yl)amino]ethyl}sulfonyl)piperazin-1-yl]phenyl}-1,3-oxazole-4-carboxamide], for which, on WT full length PAICS, the IC50 was under 10 nM. Besides, the EC50 in assay [1] lay within 100 to 250 nM.

For the compound `CCNCCS(=O)(=O)N1CCN(c2ccc(Cl)c(NC(=O)c3coc(N)n3)c2)CC1` [Example 65, 2-Amino-N-[2-chloro-5-(4-{[2-(ethylamino)ethyl]sulfonyl}piperazin-1-yl)phenyl]-1,3-oxazole-4-carboxamide], the IC50 at WT full length PAICS is 10 to 25 nM. Moreover, in assay [1], the EC50 lay in the range of 100 to 250 nM.

On to `CCCNCCS(=O)(=O)N1CCN(c2ccc(Cl)c(NC(=O)c3coc(N)n3)c2)CC1` [Example 66, 2-Amino-N-[2-chloro-5-(4-{[2-(propylamino)ethyl]sulfonyl}piperazin-1-yl)phenyl]-1,3-oxazole-4-carboxamide], for which the IC50 against WT full length PAICS lay in the range of 10 to 25 nM. The compound also displayed an EC50 in assay [1] of 100 to 250 nM.

`Nc1nc(C(=O)Nc2cc(N3CCN(S(=O)(=O)CCCN4CCCC4)CC3)ccc2Br)co1` [Example 67, 2-Amino-N-[2-bromo-5-(4-{[3-(pyrrolidin-1-yl)propyl]sulfonyl}piperazin-1-yl)phenyl]-1,3-oxazole-4-carboxamide]: the IC50 at WT full length PAICS was under 10 nM. This compound came in with an EC50 in assay [1] of under 100 nM.

For `CN(C)CCCS(=O)(=O)N1CCN(c2ccc(Cl)c(NC(=O)c3coc(N)n3)c2)CC1` [Example 68, 2-Amino-N-[2-chloro-5-(4-{[3-(dimethylamino)propyl]sulfonyl}piperazin-1-yl)phenyl]-1,3-oxazole-4-carboxamide], on WT full length PAICS, the IC50 lay within 10 to 25 nM. Also, the EC50 in assay [1] is 250 to 500 nM.

Values taken from patent publication US10961233B2 (LIFEARC, priority 2016, dated 2021).
